{"source": "patent US5147856A", "about": "“Method for inhibiting blood vessel blockage using octapeptide compositions” (Societe de Conseils de Recherches et d'Applications …, priority 1988, dated 1992)", "key": {"[1]": {"tested_on": "Smooth Muscle Pig Left Coronary Artery Explants", "experiment": "H3-thymidine incorporation in pig left coronary artery explants (Example 7)", "assay_type": "cell-based", "details": "24 hr, individual segments", "procedure": "Domestic pig hearts were obtained from a slaughter house immediately after the animals were sacrificed. The hearts were harvested and placed in ice-cold Kreb's Ringer buffer and transported to the laboratory. The left coronary artery (LAD) was dissected in aseptic conditions and divided into pieces of 5 mm. The segments were denuded from the endothelium by gently introducing a metallic rod in the lumen. The tissues were placed in sterile multiwell culture dishes in 1 ml of culture media (DMEM with antibiotics) and without fetal calf serum. H^3 -thymidine (2.5 uCi/ml) and increasing concentrations of angiopeptin (10-1000 ng/ml) were added to the medium. Segments which were incubated with 3 different concentrations of forskolin were used as a positive control in each experiment. The incubation period was 24 hr at 37° C. and 5% CO2. The tissues were washed with phosphate saline buffer and placed in a solution of cold thymidine for one hour and then frozen in liquid nitrogen, ground and lysed with a hypotonic solution. The lysed tissues were further incubated with proteinase K overnight at 50° C. The radioactivity, content of protein and DNA were measured."}, "[2]": {"tested_on": "myointimal cell proliferation in the aortas of rabbits", "experiment": "Rabbit aorta 72 hours after balloon angioplasty: wet weight, protein, DNA/protein, 3-H thymidine incorporation (Example 6)", "assay_type": "in vivo", "details": "for DNA/Protein ratio, in words: FIG. 3; for Rates of cell proliferation by 3-H thymidine incorporation, in words: FIG. 4", "procedure": "New Zealand White Rabbits were anesthetised with Rompun (Xylazine) and Ketalar (Ketamine) and a cannula (3F Fogarty) was inserted from the femoral artery. The balloon was inflated at a constant pressure and the aorta was de-endothelialised by angioplasty. The process was repeated three times and the wound site was closed. The animals were sacrificed 72 hours after balloon angioplasty and after removing the adventitia the aorta was cut into fine rings. These rings were incubated in the presence of 3-H thymidine and the radioactivity was determined after processing the tissue. Simultaneous measurements of DNA and protein contents were also made in these tissues.\nEight injections of Angiopeptin were made: on the morning and evening of the day prior to ballooning; two on the day of the procedure; and two on each of the following two days. The total daily dose was 2, 20, or 200 μg/Kg body weight."}}, "note": "Where “and” joins values, the source holds several entries; their conditions need not be identical. Equal values may be shown once.", "data": [{"smiles": "CC(C)[C@@H]1NC(=O)[C@H](CCCCN)NC(=O)[C@@H](Cc2c[nH]c3ccccc23)NC(=O)[C@H](Cc2ccc(O)cc2)NC(=O)[C@@H](NC(=O)[C@H](N)Cc2ccc3ccccc3c2)CSSC[C@@H](C(=O)N[C@H](C(N)=O)[C@@H](C)O)NC1=O", "note": "[Angiopeptin, D-Nal-Cys-Tyr-D-Trp-Lys-Val-Cys-Thr-NH2]", "values": [{"measurement": "CPM (H3-thymidine radioactivity)", "setting": "[1]; Angiopeptin 10 ng/ml", "result": "35113.84 CPM and 46392.32 CPM and 27312.80 CPM and 55980.00 CPM"}, {"measurement": "CPM (H3-thymidine radioactivity)", "setting": "[1]; Angiopeptin 20 ng/ml", "result": "26279.81 CPM and 39027.27 CPM and 39706.01 CPM and 21562.08 CPM"}, {"measurement": "CPM (H3-thymidine radioactivity)", "setting": "[1]; Angiopeptin 50 ng/ml", "result": "18942.16 CPM and 24269.18 CPM and 40768.09 CPM and 18983.78 CPM"}, {"measurement": "CPM (H3-thymidine radioactivity)", "setting": "[1]; Angiopeptin 100 ng/ml", "result": "20794.85 CPM and 32402.31 CPM and 22033.48 CPM and 26227.64 CPM"}, {"measurement": "CPM (H3-thymidine radioactivity)", "setting": "[1]; Angiopeptin 1000 ng/ml", "result": "18325.51 CPM and 27260.98 CPM and 30226.99 CPM and 32344.58 CPM"}, {"measurement": "Total protein content of injured aortas, in words", "setting": "[2]; 2 μg/kg, FIG. 2", "result": "lowered"}, {"measurement": "DNA/Protein ratio, in words", "setting": "[2]; 20 μg/kg body weight", "result": "significantly lowered"}, {"measurement": "Rates of cell proliferation by 3-H thymidine incorporation, in words", "setting": "[2]; 20 μg/kg body wt.", "result": "significantly lower"}, {"measurement": "DNA/Protein ratio, in words", "setting": "[2]; 200 μg/kg body wt.", "result": "reflected the inhibitory influence"}, {"measurement": "Rates of cell proliferation by 3-H thymidine incorporation, in words", "setting": "[2]; 200 μg/kg", "result": "still inhibited"}, {"measurement": "Wet weight of aortas, in words", "setting": "[2]; 2, 20, 200 μg/kg body wt. total daily dose, FIG. 1", "result": "does not seem to influence"}, {"measurement": "Levels of total proteins, in words", "setting": "[2]; higher doses (20 and 200 μg/kg), FIG. 2", "result": "did not affect"}, {"measurement": "Rates of cell proliferation by 3-H thymidine incorporation, in words", "setting": "[2]; overall", "result": "significantly inhibited"}]}]}
